Measurements from patent US20230165835A1, “METHODS OF TREATING ACUTE LUNG INJURY USING EBSELEN” (SOUND PHARMACEUTICALS INC., priority 2020, published 2023).

Tests used:
[1] = human, in vivo, iv
[2] = system: SARS-CoV-2; experiment: Reduction of SARS-CoV-2 viral load in Vero E6 cells (image based assay of Jin et al.); type: cell-based; settings: Severe acute respiratory syndrome coronavirus 2, Vero C1008, read-out: EC50, reduction in viral load in Vero E6 cells, SARS-CoV-2; ebselen 100 nM to 1000 μM in DMSO or EtOH, remdesivir 1 nM to 10 μM
[3] = system: Vero E6 cells; experiment: Cytotoxicity / cell viability in Vero E6 cells; type: cell-based; settings: ebselen: at ranges slightly higher than EC50
[4] = system: SARS-CoV-2; experiment: Hamster model of SARS-CoV-2 disease transmission and progression, viral load (PFU); type: in vivo, Golden Syrian Hamsters; settings: 15 mg/kg
Protocol: 24 hours prior to nasal inoculation with SARS-CoV-2, Golden Syrian Hamsters were dosed with ebselen, saline and remdesivir at 15 mg/kg. Samples were taken from nares (PFU/swab) on days 1, 2 and 3, and from the nasal turbinates and cranial & caudal lung tissue (PFU/100 mg) on day 7.

## NC[C@H]1O[C@H](O[C@H]2[C@H](O)[C@@H](O[C@H]3O[C@H](CO)[C@@H](O)[C@H](N)[C@H]3O)[C@H](N)C[C@@H]2N)[C@H](N)C[C@@H]1O [tobramycin]
[1]; 4 weeks
  % Responders (Bilateral), Conv + SRO: 33%
  % Responders (Bilateral), Conventional: 0%
  % Responders (Bilateral), DPOAE: 40%
  % Responders (Bilateral), SRO: 33%
  % Responders (Bilateral), WINT: 7%
  % Responders (Unilateral), Conv + SRO: 60%
  % Responders (Unilateral), Conventional: 27%
  % Responders (Unilateral), DPOAE: 40%
  % Responders (Unilateral), SRO: 53%
  % Responders (Unilateral), WINT: 33%
  % Responders, Conv + SRO: 93%
  % Responders, DPOAE: 80%
  % Responders, SRO: 87%
  % Responders, TFI: 8%
  % Responders, TL: 15%
  % Responders, VSS: 8%
  % Responders, WINT: 40%
[1]; 4 weeks post-treatment
  % Responders, Conventional: 27%

## CCC(CC)COC(=O)[C@H](C)N[P@](=O)(OC[C@H]1O[C@@](C#N)(c2ccc3c(N)ncnn23)[C@H](O)[C@@H]1O)Oc1ccccc1 [remdesivir]
[2]
  EC50: 7 µM
[3]
  effect on cell viability: no effect on cell viability
[4]; 24 hours prior to nasal inoculation, saline 2.7E+04
  PFU/swab (nares) Day 1: 1.1E+04 PFU/swab
[4]; 24 hours prior to nasal inoculation, saline 5.5E+02
  PFU/swab (nares) Day 3: 3.8E+03 PFU/swab
[4]; 24 hours prior to nasal inoculation, saline 7.5E+03
  PFU/swab (nares) Day 2: 3.1E+03 PFU/swab
[4]; day 7, saline 4.9E+06
  PFU/100 mg Cranial lung: 4.4E+06 PFU/100 mg
[4]; day 7, saline 5.5E+07
  PFU/100 mg Turbinates: 4.0E+02 PFU/100 mg
[4]; day 7, saline 6.1E+06
  PFU/100 mg Caudal lung: 1.2E+07 PFU/100 mg
